Source: PubChem BioAssay AID248 (DTP/NCI, 2004)
“And” between values parts separate entries of the source, which are not always exact repeats. Equal values may be shown once. Toxic doses and inconclusive results are not listed. No stated cut-off is given here; in the data, active means T/C of 150% or more; inactive means T/C below 125%.

Tested on: L1210 leukemia ip in BDF1 mice, survival T/C
Assay: NCI In Vivo Anticancer Drug Screen. Data for tumor model L1210 Leukemia (intraperitoneal) in B6D2F1 (BDF1) mice
Conditions: endpoint: mean survival time, higher = longer survival
How it was run: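 Ratio derived from survival: compound-dosed mice over vehicle-dosed mice, all bearing a transplantable tumor.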

[1] = dose: 100.0 mg/kg/injection, schedule: Q01DX009 (ip), vehicle: Klucel (hydroxypropylcellulose) (HPC)
[2] = dose: 200.0 mg/kg/injection, schedule: Q01DX009 (ip), vehicle: Klucel (hydroxypropylcellulose) (HPC)
[3] = dose: 100.0 mg/kg/injection, schedule: Q01DX001 (ip), vehicle: saline
[4] = dose: 50.0 mg/kg/injection, schedule: Q01DX009 (ip), vehicle: saline with Tween-80
[5] = dose: 100.0 mg/kg/injection, schedule: Q01DX009 (ip), vehicle: saline with Tween-80
[6] = dose: 100.0 mg/kg/injection, schedule: Q04DX002 (ip), vehicle: Klucel (hydroxypropylcellulose) (HPC)
[7] = dose: 200.0 mg/kg/injection, schedule: Q04DX002 (ip), vehicle: Klucel (hydroxypropylcellulose) (HPC)
[8] = dose: 400.0 mg/kg/injection, schedule: Q04DX002 (ip), vehicle: Klucel (hydroxypropylcellulose) (HPC)
[9] = dose: 100.0 mg/kg/injection, schedule: Q04DX002 (ip), vehicle: saline with Tween-80
[10] = dose: 200.0 mg/kg/injection, schedule: Q04DX002 (ip), vehicle: saline with Tween-80
[11] = dose: 400.0 mg/kg/injection, schedule: Q04DX002 (ip), vehicle: saline with Tween-80
[12] = dose: 200.0 mg/kg/injection, schedule: Q01DX009 (ip), vehicle: saline with Tween-80

Measured: T/C

OC(c1ccccc1)(c1ccccc1)C(c1ccccc1)c1ccccc1
inactive: dose: 100.0 mg/kg/injection, schedule: Q04DX003 (ip), vehicle: acetone 93 % of control | dose: 200.0 mg/kg/injection, schedule: Q04DX003 (ip), vehicle: acetone 97 % of control | dose: 400.0 mg/kg/injection, schedule: Q04DX003 (ip), vehicle: acetone 87 % of control

c1ccc(CC(Cc2ccccc2)=[N+]2CCCC2)cc1
inactive: dose: 100.0 mg/kg/injection, schedule: Q01DX009 (ip), vehicle: saline 91 % of control | dose: 100.0 mg/kg/injection, schedule: Q04DX003 (ip), vehicle: saline 104 % of control | dose: 200.0 mg/kg/injection, schedule: Q01DX009 (ip), vehicle: saline 92 % of control | dose: 200.0 mg/kg/injection, schedule: Q04DX003 (ip), vehicle: saline 98 % of control | dose: 400.0 mg/kg/injection, schedule: Q01DX009 (ip), vehicle: saline 101 % of control | dose: 400.0 mg/kg/injection, schedule: Q04DX003 (ip), vehicle: saline 105 % of control

BrCC1(c2ccccc2)OCCO1
inactive: dose: 100.0 mg/kg/injection, schedule: Q01DX001 (ip), vehicle: Klucel (hydroxypropylcellulose) (HPC) 100 % of control | [1] 89 % of control | dose: 200.0 mg/kg/injection, schedule: Q01DX001 (ip), vehicle: Klucel (hydroxypropylcellulose) (HPC) 92 % of control | [2] 89 % of control | dose: 400.0 mg/kg/injection, schedule: Q01DX001 (ip), vehicle: Klucel (hydroxypropylcellulose) (HPC) 98 % of control

[N-]=[N+]=Nc1nc2c(N)ncnc2n1C1OC(CO)C(O)C1O (stereo not given)
inactive: dose: 25.0 mg/kg/injection, schedule: Q01DX001 (ip), vehicle: saline 102 % of control | dose: 50.0 mg/kg/injection, schedule: Q01DX001 (ip), vehicle: saline 105 % of control | [3] 103 % of control

O=C(N=c1scc(-c2ccc(Br)cc2)n1-c1cccc2ccccc12)c1ccccc1F
inactive: dose: 25.0 mg/kg/injection, schedule: Q01DX009 (ip), vehicle: saline with Tween-80 89 % of control | [4] 87 % of control | [5] 93 % of control

CCN(C)CCC(CC=C(C)C)(C(N)=O)c1cccc2ccccc12 (stereo not given)
inactive: dose: 12.5 mg/kg/injection, schedule: Q04DX002 (ip), vehicle: saline 100 % of control | dose: 25.0 mg/kg/injection, schedule: Q04DX002 (ip), vehicle: saline 87 % of control

ClCCN=Cc1ccc(Cl)cc1
inactive: [1] 96 % of control | [6] 96 % of control | [2] 91 % of control | [7] 100 % of control | dose: 400.0 mg/kg/injection, schedule: Q01DX009 (ip), vehicle: Klucel (hydroxypropylcellulose) (HPC) 96 % of control | [8] 100 % of control

Cc1nc(C(N)=O)c2nc3c4ccccc4c4ccccc4c3nn12
inactive: dose: 25.0 mg/kg/injection, schedule: Q04DX002 (ip), vehicle: saline with Tween-80 94 % of control | dose: 50.0 mg/kg/injection, schedule: Q04DX002 (ip), vehicle: saline with Tween-80 91 % of control | [9] 87 % of control | [10] 89 % of control | [11] 92 % of control

Oc1ccc(Cl)cc1C1N(Cc2ccc(N(CCCl)CCCl)cc2Cl)CCCN1Cc1ccc(N(CCCl)CCCl)cc1Cl
inactive: dose: 50.0 mg/kg/injection, schedule: Q01DX001 (ip), vehicle: carboxymethylcellulose (CMC) 113 % of control | dose: 100.0 mg/kg/injection, schedule: Q01DX001 (ip), vehicle: carboxymethylcellulose (CMC) 96 % of control | dose: 200.0 mg/kg/injection, schedule: Q01DX001 (ip), vehicle: carboxymethylcellulose (CMC) 105 % of control | dose: 400.0 mg/kg/injection, schedule: Q01DX001 (ip), vehicle: carboxymethylcellulose (CMC) 96 % of control

O=[N+]([O-])c1ccc(/C=C2\c3ccccc3-c3nc4ccccc4nc32)cc1
inactive: dose: 75.0 mg/kg/injection, schedule: Q01DX001 (ip), vehicle: saline 92 % of control | dose: 300.0 mg/kg/injection, schedule: Q01DX001 (ip), vehicle: saline 91 % of control

c1ccc(NC2C(=C(c3ccccc3)c3ccccc3)N3CCC2CC3)cc1 (stereo not given)
inactive: dose: 100.0 mg/kg/injection, schedule: Q04DX003 (ip), vehicle: Klucel (hydroxypropylcellulose) (HPC) 95 % of control | dose: 200.0 mg/kg/injection, schedule: Q04DX003 (ip), vehicle: Klucel (hydroxypropylcellulose) (HPC) 94 % of control | dose: 400.0 mg/kg/injection, schedule: Q04DX003 (ip), vehicle: Klucel (hydroxypropylcellulose) (HPC) 95 % of control

CCCOCC(O)CNCCN (stereo not given)
inactive: [1] 98 % of control | [2] 92 % of control

O=C1c2ccccc2C(=O)c2c(Nc3ccccc3)ccc(NCCO)c21
inactive: [3] 102 % of control | dose: 200.0 mg/kg/injection, schedule: Q01DX001 (ip), vehicle: saline 100 % of control | dose: 400.0 mg/kg/injection, schedule: Q01DX001 (ip), vehicle: saline 97 % of control

CC1=CCCC2(CCC3(C)CC32)C1(C)C (stereo not given)
inactive: dose: 100.0 mg/kg/injection, schedule: Q01DX009 (ip), vehicle: acetone 89 % of control | dose: 200.0 mg/kg/injection, schedule: Q01DX009 (ip), vehicle: acetone 95 % of control

O=C1NC(=S)S/C1=C/c1ccco1
inactive: [6] 105 % of control | [7] 98 % of control | [8] 105 % of control

O=C1OC(/C=C/c2ccccc2)=NC/1=C\c1ccccc1
inactive: [9] 92 % of control | [10] 95 % of control | [11] 92 % of control

CCN(C)CCC(C=O)(c1cccc2ccccc12)C(C)C (stereo not given)
inactive: dose: 100.0 mg/kg/injection, schedule: Q04DX002 (ip), vehicle: saline 100 % of control

CC(C)(C)C(Br)C(Br)Br (stereo not given) (tested in a mixture with another compound)
inactive: [4] 101 % of control | [5] 97 % of control | [12] 89 % of control

N#CCCc1c(O)ccc2ccccc12
inactive: [5] 105 % of control | [12] 102 % of control | dose: 400.0 mg/kg/injection, schedule: Q01DX009 (ip), vehicle: saline with Tween-80 105 % of control

CCCNC1=C(N2CC2)C(=O)C(NCCC)=C(N2CC2)C1=O
inactive: dose: 0.09 mg/kg/injection, schedule: Q04DX003 (ip), vehicle: saline 96 % of control and 109 % of control | dose: 0.18 mg/kg/injection, schedule: Q04DX003 (ip), vehicle: saline 97 % of control and 106 % of control | dose: 0.37 mg/kg/injection, schedule: Q01DX001 (ip), vehicle: saline 108 % of control | dose: 0.37 mg/kg/injection, schedule: Q04DX003 (ip), vehicle: saline 100 % of control and 103 % of control | dose: 0.39 mg/kg/injection, schedule: Q01DX009 (ip), vehicle: saline 95 % of control and 102 % of control | dose: 0.75 mg/kg/injection, schedule: Q01DX001 (ip), vehicle: saline 108 % of control | dose: 0.75 mg/kg/injection, schedule: Q04DX003 (ip), vehicle: saline 105 % of control and 108 % of control | dose: 0.78 mg/kg/injection, schedule: Q01DX009 (ip), vehicle: saline 107 % of control and 118 % of control | dose: 1.5 mg/kg/injection, schedule: Q01DX001 (ip), vehicle: saline 117 % of control | dose: 1.5 mg/kg/injection, schedule: Q04DX003 (ip), vehicle: saline 100 % of control | dose: 1.56 mg/kg/injection, schedule: Q01DX009 (ip), vehicle: saline 107 % of control and 116 % of control | dose: 1.56 mg/kg/injection, schedule: Q04DX003 (ip), vehicle: saline 103 % of control | dose: 3.0 mg/kg/injection, schedule: Q01DX001 (ip), vehicle: saline 118 % of control | dose: 3.0 mg/kg/injection, schedule: Q04DX003 (ip), vehicle: saline 118 % of control and 120 % of control | dose: 3.12 mg/kg/injection, schedule: Q04DX003 (ip), vehicle: saline 93 % of control | dose: 6.0 mg/kg/injection, schedule: Q01DX001 (ip), vehicle: saline 90 % of control | dose: 6.25 mg/kg/injection, schedule: Q04DX003 (ip), vehicle: saline 98 % of control | dose: 12.0 mg/kg/injection, schedule: Q01DX001 (ip), vehicle: saline 110 % of control | dose: 12.5 mg/kg/injection, schedule: Q04DX003 (ip), vehicle: saline 115 % of control | dose: 25.0 mg/kg/injection, schedule: Q04DX003 (ip), vehicle: saline 113 % of control

Cc1ccc(S(=O)(=O)OC2COCOC2C2(OS(=O)(=O)c3ccc(C)cc3)COCOC2)cc1 (stereo not given)
inactive: [6] 101 % of control | [7] 101 % of control | [8] 104 % of control
